# Measurements taken from patent US11351178B2, “Selective HDAC6 inhibitors” (ITALFARMACO S.P.A., priority 2017, dated 2022).
# Key:
# Stability in rat plasma = format: in vitro ADME; settings: after 4 hours, 37° C.
# Procedure: In order to evaluate the stability to circulating enzymes, test compounds were incubated in human and rat plasma at 37° C. in a thermostated oscillating bath. Each test compound was incubated at μM (50 μM when the samples were analysed by UV/HPLC, 1 or 2 μM when the samples were analysed by LC-MS/MS) concentration for 0, 15, 30 min and 1, 2 and 4 hours. The reaction was stopped placing tubes on ice bath and adding acidified acetonitrile. After centrifugation for 10 minutes at 14000 rpm, an aliquot of the supernatant was diluted with water, filtered with 0.45 μm syringe filters and injected in HPLC-UV or in LC-MS/MS. The percentages of amount remaining at the various times of incubation with respect to initial amount were calculated. The half-life in plasma was also calculated.
# recombinant human HDAC6 = target: T1, recombinant human HDAC6 (Homo sapiens, UniProt Q9UBN7); test: Enzymatic screening on recombinant human HDAC6; format: biochemical; settings: Table 2; read-out: HDAC6 IC50
# T1 sequence (Q9UBN7 1-1215): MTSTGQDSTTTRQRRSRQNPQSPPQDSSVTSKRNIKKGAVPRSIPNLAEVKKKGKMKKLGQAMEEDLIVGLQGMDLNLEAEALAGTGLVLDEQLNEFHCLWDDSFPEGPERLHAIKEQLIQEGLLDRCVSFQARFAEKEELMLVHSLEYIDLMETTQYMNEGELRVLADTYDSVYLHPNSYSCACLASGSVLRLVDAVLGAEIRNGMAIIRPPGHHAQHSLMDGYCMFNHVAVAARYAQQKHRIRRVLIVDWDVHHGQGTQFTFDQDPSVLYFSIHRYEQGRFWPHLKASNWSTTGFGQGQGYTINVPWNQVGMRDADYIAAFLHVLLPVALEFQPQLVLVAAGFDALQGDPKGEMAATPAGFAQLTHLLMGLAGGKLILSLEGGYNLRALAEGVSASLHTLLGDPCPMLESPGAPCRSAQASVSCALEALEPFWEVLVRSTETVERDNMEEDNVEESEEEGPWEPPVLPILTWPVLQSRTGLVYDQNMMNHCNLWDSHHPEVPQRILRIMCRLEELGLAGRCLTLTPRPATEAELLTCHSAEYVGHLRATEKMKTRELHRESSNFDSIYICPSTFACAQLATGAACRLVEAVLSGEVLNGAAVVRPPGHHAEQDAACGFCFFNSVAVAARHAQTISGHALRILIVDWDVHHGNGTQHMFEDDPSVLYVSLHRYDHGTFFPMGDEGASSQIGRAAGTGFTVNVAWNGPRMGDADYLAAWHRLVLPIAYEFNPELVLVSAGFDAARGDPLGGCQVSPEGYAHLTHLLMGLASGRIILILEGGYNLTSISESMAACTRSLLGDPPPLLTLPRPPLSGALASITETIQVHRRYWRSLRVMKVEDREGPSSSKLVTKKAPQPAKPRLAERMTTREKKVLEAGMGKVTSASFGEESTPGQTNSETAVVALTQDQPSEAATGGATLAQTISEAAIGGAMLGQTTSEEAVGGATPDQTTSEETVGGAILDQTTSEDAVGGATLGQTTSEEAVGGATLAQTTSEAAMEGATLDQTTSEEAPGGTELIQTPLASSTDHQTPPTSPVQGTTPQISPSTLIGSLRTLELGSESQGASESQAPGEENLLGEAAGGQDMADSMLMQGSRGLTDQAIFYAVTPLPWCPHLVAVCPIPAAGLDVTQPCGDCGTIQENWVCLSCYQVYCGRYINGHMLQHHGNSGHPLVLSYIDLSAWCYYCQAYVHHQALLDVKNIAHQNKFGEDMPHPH
# How it was run: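 Recombinant human enzyme was incubated with compound at 30 °C for an isoform-dependent time, then substrate (FLUOR DE LYS, FLUOR DE LYS-Green or trifluoroacetyl-L-lysine) was added as a 2× solution in 25 mM Tris-HCl pH 8, 130 mM NaCl, 0.05% Tween-20, 10% glycerol. The deacetylation reaction then proceeded at 30 °C.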
# [1] = Stability to Phase I metabolism in rat S9 liver fraction; format: in vitro ADME; settings: after 90 min, 37° C.
# Procedure: Test compounds were incubated in rat and human liver S9 fraction at 37° C. up to 90 minutes in order to evaluate their stability to Phase I metabolism by hepatic enzymes. […] The reaction was stopped placing samples on ice bath and adding acidified acetonitrile. After centrifugation (10 minutes at 14000 rpm) an aliquot of the supernatant was diluted water, filtered with 0.45 μm regenerated cellulose syringe filters and injected in HPLC-UV or in LC-MS/MS. The percentages of the amount remaining at the various incubation times with respect to the initial amount were calculated. The intrinsic clearance was also calculated.
residual percentage in rat plasma (Stability in rat plasma) [%],IC50 (recombinant human HDAC6) [nM],residual percentage in rat S9 fraction [1] [%],SMILES
81,68,69,"COc1ccc(Cc2nnc(Cc3ccc(C(=O)NO)cc3)o2)cc1OC [comp. 45, 4-[[5-[(3,4-dimethoxyphenyl)methyl]-1,3,4-oxadiazol-2-yl]methyl]benzenecarbohydroxamic acid]"
85,14,12,"O=C(NO)c1cc(F)c(Sc2nnc(-c3ccccn3)n2Cc2ccco2)c(F)c1 [comp. 140, 3,5-difluoro-4-[[4-(2-furylmethyl)-5-(2-pyridyl)-1,2,4-triazol-3-yl]sulfanyl]benzenecarbohydroxamic acid]"
91,7,108,"Cn1c(Sc2c(F)cc(C(=O)NO)cc2F)nnc1-c1sc2ncccc2c1N [comp. 99, 4-[[5-(3-aminothieno[2,3-b]pyridin-2-yl)-4-methyl-1,2,4-triazol-3-yl]sulfanyl]-3,5-difluoro-benzenecarbohydroxamic acid]"
73,18,9,"Cn1c(Sc2c(F)cc(C(=O)NO)cc2F)nnc1C1(c2ccccc2)CCC1 [comp. 101, 3,5-difluoro-4-[[4-methyl-5-(1-phenylcyclobutyl)-1,2,4-triazol-3-yl]sulfanyl]benzenecarbohydroxamic acid]"
101,70,44,"Cc1ccc(-c2cc(-c3nnc(Sc4ccc(C(=O)NO)cc4)n3C)c3ccccc3n2)cc1 [comp. 67, 4-[[4-methyl-5-[2-(p-tolyl)-4-quinolyl]-1,2,4-triazol-3-yl]sulfanyl]benzenecarbohydroxamic acid]"
103,19,74,"O=C(NO)c1ccc(Sc2nnc(-c3ccc(F)cc3)[nH]2)cc1 [comp. 29, 4-[[5-(4-fluorophenyl)-4H-1,2,4-triazol-3-yl]sulfanyl]benzenecarbohydroxamic acid]"
76,25,91,"Cn1c(Sc2c(F)cc(C(=O)NO)cc2F)nnc1-c1cccnc1 [comp. 153, 3,5-difluoro-4-[[4-methyl-5-(3-pyridyl)-1,2,4-triazol-3-yl]sulfanyl]benzenecarbohydroxamic acid]"
78,25,65,"O=C(NO)c1cc(F)c(Sc2nnc(N3CCCC3)n2Cc2ccco2)c(F)c1 [comp. 116, 3,5-difluoro-4-[[4-(2-furylmethyl)-5-pyrrolidin-1-yl-1,2,4-triazol-3-yl]sulfanyl]benzenecarbohydroxamic acid]"
83,127,55,"Cc1nc(Sc2ccc(C(=O)NO)cc2)nn1-c1ccc(Cl)cc1Cl [comp. 62, 4-[[1-(2,4-dichlorophenyl)-5-methyl-1,2,4-triazol-3-yl]sulfanyl]benzenecarbohydroxamic acid]"
60,52,38,"O=C(NO)c1ccc(Cn2nnc(Cc3ccccc3)n2)cc1 [comp. 36, 4-[(5-benzyltetrazol-2-yl)methyl]benzenecarbohydroxamic acid]"
79,56,5,"COc1ccc(C2(c3nnc(Sc4c(F)cc(C(=O)NO)cc4F)n3C)CCCCC2)cc1 [comp. 103, 3,5-difluoro-4-[[5-[1-(4-methoxyphenyl)cyclohexyl]-4-methyl-1,2,4-triazol-3-yl]sulfanyl]benzenecarbohydroxamic acid]"
4,52,58,"COc1ccc(-c2nnnn2Cc2ccc(C(=O)NO)cc2)cc1OCc1ccccc1 [comp. 71, 4-[[5-(3-benzyloxy-4-methoxy-phenyl)tetrazol-1-yl]methyl]benzenecarbohydroxamic acid]"
10,35,72,"O=C(NO)c1cc(F)c(Cn2nnnc2-c2cccc(S(F)(F)(F)(F)F)c2)c(F)c1 [comp. 109, 3,5-difluoro-4-[[5-[3-(pentafluoro-lambda6-sulfanyl)phenyl]tetrazol-1-yl]methyl]benzenecarbohydroxamic acid]"
100,14,52,"Cc1nc2ccc(F)cc2cc1-c1nnc(Sc2c(F)cc(C(=O)NO)cc2F)n1C [comp. 137, 3,5-difluoro-4-[[5-(6-fluoro-2-methyl-3-quinolyl)-4-methyl-1,2,4-triazol-3-yl]sulfanyl]benzenecarbohydroxamic acid]"
77,47,9,"O=C(NO)c1ccc(Sc2nnc(-c3c[nH]c4ccccc34)n2Cc2ccco2)cc1 [comp. 25, 4-[[4-(2-furylmethyl)-5-(1H-indol-3-yl)-1,2,4-triazol-3-yl]sulfanyl]benzenecarbohydroxamic acid;2,2,2-trifluoroacetic acid]"
90,18,40,"O=C(NO)c1cc(F)c(Sc2nnc(-c3cnccn3)n2Cc2ccco2)c(F)c1 [comp. 139, 3,5-difluoro-4-[[4-(2-furylmethyl)-5-pyrazin-2-yl-1,2,4-triazol-3-yl]sulfanyl]benzenecarbohydroxamic acid]"
82,7,57,"COc1ccc(-c2nc(Cc3ccc(C(=O)NO)cc3)no2)cc1OC [comp. 49, 4-[[5-(3,4-dimethoxyphenyl)-1,2,4-oxadiazol-3-yl]methyl]benzenecarbohydroxamic acid]"
73,122,57,"O=C(NO)c1cc(F)c(Sc2nnc(CN3CCCCC3)n2-c2ccc(F)cc2)c(F)c1 [comp. 115, 3,5-difluoro-4-[[4-(4-fluorophenyl)-5-(1-piperidylmethyl)-1,2,4-triazol-3-yl]sulfanyl]benzenecarbohydroxamic acid]"
79,16,7,"O=C(NO)c1cc(F)c(Sc2nnc(-c3ccccc3F)n2Cc2ccco2)c(F)c1 [comp. 145, 3,5-difluoro-4-[[5-(2-fluorophenyl)-4-(2-furylmethyl)-1,2,4-triazol-3-yl]sulfanyl]benzenecarbohydroxamic acid]"
78,93,96,"O=C(NO)c1cc(F)c(Cn2nnnc2Cc2ccccn2)c(F)c1.O=C(O)C(F)(F)F [comp. 135, 3,5-difluoro-4-[[5-(2-pyridylmethyl)tetrazol-1-yl]methyl]benzenecarbohydroxamic acid;2,2,2-trifluoroacetic acid]"
